{"source": "the NIST ThermoML archive (doi:10.1021/je049848j)", "key": {"[1]": {"experiment": "refractive index (Na D-line) (dimensionless)", "conditions": "293 K; 101.33 kPa; Liquid; Standard Abbe refractometry"}, "[2]": {"conditions": "Liquid; for mass density: 293 K, 101.33 kPa, Vibrating tube method; for Normal boiling temperature: Fischer boiling apparatus"}}, "note": "Numbers after ± are expanded uncertainties.", "data": [{"smiles": "CC(=O)O", "note": "[acetic acid]", "values": [{"measurement": "refractive index", "setting": "[1]", "result": "1.372 ± 0.0011"}, {"measurement": "mass density", "setting": "[2]", "result": "1049.5 ± 0.5", "unit": "kg/m3"}, {"measurement": "Normal boiling temperature", "setting": "[2]", "result": "117.70 ± 0.2", "unit": "°C"}]}, {"smiles": "CC(=O)OC1CCCCC1", "note": "[cyclohexyl ethanoate]", "values": [{"measurement": "refractive index", "setting": "[1]", "result": "1.4398 ± 0.0011"}, {"measurement": "mass density", "setting": "[2]", "result": "969.2 ± 0.9", "unit": "kg/m3"}, {"measurement": "Normal boiling temperature", "setting": "[2]", "result": "172.60 ± 0.2", "unit": "°C"}]}, {"smiles": "CCCCCO", "note": "[pentan-1-ol]", "values": [{"measurement": "refractive index", "setting": "[1]", "result": "1.4104 ± 0.0011"}, {"measurement": "mass density", "setting": "[2]", "result": "814 ± 0.5", "unit": "kg/m3"}, {"measurement": "Normal boiling temperature", "setting": "[2]", "result": "138.00 ± 0.2", "unit": "°C"}]}, {"smiles": "CCC(=O)O", "note": "[propanoic acid]", "values": [{"measurement": "refractive index", "setting": "[1]", "result": "1.3811 ± 0.0011"}, {"measurement": "mass density", "setting": "[2]", "result": "992.5 ± 0.5", "unit": "kg/m3"}, {"measurement": "Normal boiling temperature", "setting": "[2]", "result": "140.90 ± 0.2", "unit": "°C"}]}, {"smiles": "Cc1ccccc1", "note": "[toluene]", "values": [{"measurement": "refractive index", "setting": "[1]", "result": "1.496 ± 0.0011"}, {"measurement": "mass density", "setting": "[2]", "result": "867.3 ± 0.5", "unit": "kg/m3"}, {"measurement": "Normal boiling temperature", "setting": "[2]", "result": "110.30 ± 0.2", "unit": "°C"}]}]}
